The text below walks through data of patent US20030124571A1, “Novel human septin and uses therefor” (The Government of the United States of America, priority 2000, published 2003).

The subject of test [1] is NRP-154 cells. Nature of the test: Thymidine incorporation assay, NRP-154 cells. The format is cell-based, rat. The conditions noted are these: 24 hr treatment with 10 ng/ml TGF-β1. As to the method:
(§1) M-NRP1 and NRP-154 cells were plated at 1×10^5 cells per well in 24 well plates and allowed to attach overnight. Incorporation of (^3H)-thymidine was measured by adding radioactivity for 3 hours, 24 hours after addition of control or 10 ng/ml TGF-β1. Plates were counted on a Packard Top Count. Parallel plates (e.g., those treated in an identical manner) were harvested by trypinization for counting in a Coulter Counter.
(In general: Dividing cells build labelled thymidine or BrdU into new DNA.)

A further test has as its system COS cells. Briefly: TUNEL assay of transfected COS cells. Format: cell-based, monkey. The conditions noted are these: COS cells transfected with control vector, 10 ng/ml TGF-β for 24 hours. As to the method: COS cells were cultured as previously described (Section E, above). […] When these cells are transfected with ARTS and treatment with TGF-β they are induced to cell death.
COS cells were then transfected with control vector or wildtype ARTS, essentially as described above, and treated with 10 ng/ml TGF-β for 24 hours.
The apoptotic response of COS cells to TGF-β was assessed by a TUNEL assay ([…], now Roche, Indianapolis, Ind.) following the manufacturer's instructions.
COS cells were cultured and transfected, as described above, with equal concentrations of either pcDNA3 control vector, ARTS or M-ARTS-pcDNA3 using the Lipofectamine transfection reagent (Gibco BRL Life Technologies, Gaithersburg, Md.). The cells were treated with 1 o ng/ml TGF-β for 24 hours.
Apoptosis was examined in a TUNEL assay (Boehringer-Mannheim), according to the manufacturer's instructions.

Test [2] has as its system cyclin A promoter construct (pCAL2) in M-NRP1 cells. Nature of the test: Cyclin A promoter construct pCAL2-luc luciferase assay, M-NRP1 cells. The conditions noted are these: 24 hours of exposure to 10 ng/ml TGF-β. The format is cell-based, rat. As to the method:
(§2) M-NRP1 and NRP-154 cells were cultured in 10% fetal bovine serum as described by Chaudhary et al., (1998) J. Biol. Chem. 273: 17708-17712) and exposed to 10 ng/ml TGF-β1 for 24 hours.
(§3) M-NRP1 cells were transiently transfected with pCal-luc (a pCAL2 reporter construct described by Keeton et al., (1991) J. Biol. Chem. 266: 23048-23052) using the Lipofectamine (Gibco BRL Life Technologies, Gaithersburg, Md.) transfection reagent.
(§4) Activity of the transiently transfected cyclin A promoter construct, pCal2-luc, was assessed by a luciferase assay and measured using a luminometer. The basal activity (e.g., without TGF-β treatment) of pCAL2 was similar in MNRP-1 and NRP-154 cells.

Test [3] deals with M-NRP1 cells. Briefly: Thymidine incorporation assay, M-NRP1 cells. The conditions noted are these: 24 hr treatment with 10 ng/ml TGF-β1. Format: cell-based, rat. As to the method:
as §1

In test [4] the test system is caspase 3 in NRP-154 cells. Nature of the test: Caspase 3 fluorescent activity assay, NRP-154 cells. The format is cell-based, rat. The following applies: 10 ng/ml TGF-β 24 hours. As to the method: Cells were seeded to 50% confluence in six-well plates in media containing 10% fetal calf serum overnight. Following 24 hours after transfection, cells media was changed to contain 1% fetal calf serum with or without 10 ng/ml TGF-β for additional 24 hours. Cells were treated with caspase 3 aldehyde inhibitor (Ac-DEVD-CHO) supplied with caspase 3 fluorescent activity kit according to the manufacturers' protocols (Pharmingen, San-Diego, Calif.). Results were read using FL-600 microplate fluorescence reader (Bio-Tek).

Test [5] has as its system M-NRP1 cells. Briefly: TUNEL assay, M-NRP1 cells. Format: cell-based, rat. The following applies: 10 ng/ml TGF-β, 24 hours. As to the method: (§5) TUNEL assays were performed using the TACS In Situ Apoptosis Detection Kit (Trevigen). Briefly, NRP-154 and M-NRP1 cells were plated at 8×10^4 cells/ml in a 96 well plate and allowed to attach overnight. Cells were then treated with either 10 ng/ml TGF-β (R&D Systems, Inc., Minneapolis, Minn.), or control (i.e., the identical solution without TGF-β) for 24 hours, fixed with formaldehyde and analyzed for stained nuclei according to the manufacturer's instructions.

Test [6] has as its system NRP-154 cells. The conditions noted are these: 48-72 hours exposure to 10 ng/ml TGF-β; cited from earlier work.
Test [7] concerns M-NRP1 cells. Briefly: Apoptosis (DNA laddering, morphology), M-NRP1 cells. Format: cell-based, rat. The following applies: 24 hours; 10 ng/ml TGF-β, okadaic acid 30 nM, staurosporine 2 nM. As to the method: (§6) 2×10^5 M-NRP1 cells or NRP-154 cells were plated in 6-well dishes. After 24 hours, 2 ml DMEM/F12 containing 15 mM HEPES, 1% calf serum, and 0.1 μM dexamethasone were added to the plates. The cells were cultured at 37° C. for 24 hours and then detached by trypsinization.
(§7) Internucleosomal DNA ladders were detected with a modification (described below) of TACS apoptotic DNA ladder kit (Trevigen, Githersburg, Md.). Briefly, the detached cells were centrifuged at 600×g to form cell pellets. The cell pellets were then resuspended in 25 μl PBS and lysed by the addition of 25 μl of lysis buffer. DNA was purified from the mixture as directed by Trevigen.
The nicked ends of the DNA were ^32P-labeled by incubating 1 μg of DNA with 2.5 units of Klenow fragment of DNA Poll in the presence of 0.5 μCi of (α-^32P) dCTP (3 Ci/mmol, Dupont NEN, Boston, Mass.) for 30 min at room temperature in a 10 μl reaction volume containing 5 mM MgCl2 and 10 mM Tris-HCl (pH 7.5). One third of the labeled DNA was electrophoresed through 1.8% agarose-1×TAE at 70 V for 2 hours. Gels were dried and exposed to X-Omat AR (Kodak, Rochester, N.Y.) for about 1 hour.
Staurosporine and okadaic acid (Upstate Biotechnology Incorporated, Lake Placid, N.Y.) were dissolved in dimethyl sulfoxide (DMSO) and diluted to a final concentration of 2 nM and […], respectively, in 0.01% DMSO.
(§8) NRP-154 and M-NRP1 cells were treated with a control (i.e., the identical solution without the agent of interest) or with 10 ng/ml TGF-β, okadaic acid (30 nM) or staurosporine (2 nM) for 24 hours. Apoptosis was determined by DNA laddering, essentially as described in Example VA, above.

Test [8] concerns NRP-154 cells. Nature of the test: TUNEL assay, NRP-154 cells. The following applies: 10 ng/ml TGF-β, 24 hours. Format: cell-based, rat. As to the method:
as §5

The test system of test [9] is cyclin A promoter construct (pCAL2) in NRP-154 cells. Briefly: Cyclin A promoter construct pCAL2-luc luciferase assay, NRP-154 cells. Format: cell-based, rat. The following applies: 24 hours of treatment with 10 ng/ml TGF-β. As to the method:
as §2, §3, §4

For test [10], the system named is NRP-154 cells. Briefly: Apoptosis / cell death (DNA laddering, morphology), NRP-154 cells. Format: cell-based, rat. The following applies: 24 hours; okadaic acid 30 nM, staurosporine 2 nM. As to the method:
as §6, §7
The nicked ends of the DNA were ^32P-labeled by incubating 1 μg of DNA with 2.5 units of Klenow fragment of DNA Poll in the presence of 0.5 μCi of (α-^32P) dCTP (3 Ci/mmol, Dupont NEN, Boston, Mass.) for 30 min at room temperature in a 10 μl reaction volume containing 5 mM MgCl2 and 10 mM Tris-HCl (pH 7.5). One third of the labeled DNA was electrophoresed through 1.8% agarose-1×TAE at 70 V for 2 hours. […]
as §8

For “TGF-β: recombinant human TGF-β1 (R&D Systems), transforming growth factor-β”, the “(3H)-thymidine uptake inhibited” value in the test with NRP-154 cells [1] was “greater than 80%”. Besides, the “apoptosis (TUNEL)” value in the test on COS cells is “did not undergo apoptosis”. In [2], the “activity of the pCal-luc reporter” value was “unaffected”. Also, the “(3H)-thymidine uptake stimulated” value in the test on M-NRP1 cells [3] stood at 14%. Further, in test [4], the “caspase 3 activity” value is reported as “caspase 3 was activated”. Also, the “TUNEL staining of nuclei” value with M-NRP1 cells [5] is “most nuclei from M-NRP1 cells remained intact”; in the test on NRP-154 cells [8] it was “strong TUNEL staining of apoptotic nuclei”. In addition, the cell death entry with NRP-154 cells [6] was “over 80%”. Further, the apoptosis entry with M-NRP1 cells [7] was “resistant to apoptosis”. Besides, the pCAL2 activity result in test [9] is “strong decrease”.
As for `C=C1[C@@H](O)[C@@H]2O[C@]3(CC[C@H](/C=C/[C@@H](C)[C@@H]4CC(C)=C[C@@]5(O[C@H](C[C@@](C)(O)C(=O)O)CC[C@H]5O)O4)O3)CC[C@H]2O[C@@H]1[C@@H](O)C[C@H](C)[C@H]1O[C@@]2(CCCCO2)CC[C@H]1C` [okadaic acid], the apoptosis result with NRP-154 cells [10] is “morphologically evident shrinkage, nuclear fragmentation, and loss of attachment characteristic of apoptosis”; in the test with M-NRP1 cells [7], “remain sensitive to apoptosis”.
As for `CN[C@@H]1C[C@H]2O[C@@](C)([C@@H]1OC)n1c3ccccc3c3c4c(c5c6ccccc6n2c5c31)C(=O)NC4` [staurosporine], the apoptosis entry in the test on NRP-154 cells [10] is “morphologically evident shrinkage, nuclear fragmentation, and loss of attachment characteristic of apoptosis”; in the test on M-NRP1 cells [7], “remain sensitive to apoptosis”.
